Test results as given in the supplement of paper PMC11061612.

Assays:
Experiment in all cases: Bliss excess, mean over the matrix (fraction); higher = more synergy
[1] = system: CAL-62 (Thyroid Gland Carcinoma)
Summary of the method: (§1)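 Cell lines grown in DMEM/F12 or RPMI with 10% FBS were plated in 1536-well plates and held 24 hours at 37°C, 5% CO2 before 72 hours of exposure to two-drug dose matrices, with DMSO typically at 0.2%. CellTiter-Glo 2.0 luminescence gave viability, which was converted to inhibition. Vehicle wells were set to 0 and blank wells to 1. Combination Emax is the second-highest inhibition in the matrix, and Bliss excess is the observed combination effect minus the expected EA + EB − EA·EB, where EA and EB are the single-agent effects.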

[2] = system: COLO-680N (Esophageal Squamous Cell Carcinoma)
Summary of the method: as §1

[3] = system: HSC-39 (Gastric Carcinoma)
Summary of the method: as §1

IST-MES1 (Mesothelioma) = system: IST-MES1 (Mesothelioma)
Summary of the method: as §1

[4] = system: L-1236 (Hodgkin's Lymphoma)
Summary of the method: as §1

[5] = system: MFE-280 (Endometrial Carcinoma)
Summary of the method: as §1

[6] = system: MKN45 (Gastric Carcinoma)
Summary of the method: as §1

NB12 (Neuroblastoma) = system: NB12 (Neuroblastoma)
Summary of the method: as §1

[7] = system: NCI-H2342 (Lung Adenocarcinoma)
Summary of the method: as §1

[8] = system: PANC-03-27 (Pancreatic Carcinoma)
Summary of the method: as §1

[9] = system: PC-3_[JPC-3] (Lung Adenocarcinoma)
Summary of the method: as §1

[10] = system: PSN1 (Pancreatic Carcinoma)
Summary of the method: as §1

[11] = system: RCM-1 (Colorectal Carcinoma)
Summary of the method: as §1

[12] = system: REH (B-Lymphoblastic Leukemia)
Summary of the method: as §1

[13] = system: RKN (Other Solid Carcinomas)
Summary of the method: as §1

SF539 (Glioblastoma) = system: SF539 (Glioblastoma)
Summary of the method: as §1

[14] = system: SHP-77 (Small Cell Lung Carcinoma)
Summary of the method: as §1

[15] = system: SK-PN-DW (Other Solid Carcinomas)
Summary of the method: as §1

[16] = system: TE-8 (Esophageal Squamous Cell Carcinoma)
Summary of the method: as §1

[17] = system: VAL (B-Cell Non-Hodgkin's Lymphoma)
Summary of the method: as §1

Row | SMILES | Bliss excess [1] | Bliss excess [2] | Bliss excess [3] | Bliss excess (IST-MES1 (Mesothelioma)) | Bliss excess [4] | Bliss excess [5] | Bliss excess [6] | Bliss excess (NB12 (Neuroblastoma)) | Bliss excess [7] | Bliss excess [8] | Bliss excess [9] | Bliss excess [10] | Bliss excess [11] | Bliss excess [12] | Bliss excess [13] | Bliss excess (SF539 (Glioblastoma)) | Bliss excess [14] | Bliss excess [15] | Bliss excess [16] | Bliss excess [17]
1 | O=C(c1cc(Cc2n[nH]c(=O)c3ccccc23)ccc1F)N1CCN(C(=O)C2CC2)CC1 [Olaparib] + Cc1c2c(nn1C)CSCc1cc(n(C)n1)CSc1cc(c3ccccc3c1)OCCCc1c(C(=O)O)n(C)c3c-2c(Cl)ccc13 [AZD5991] (first compound max 10 µM, 7x7, partner max 1 µM) | -0.0483 | -0.0543 | 0.0101 | -0.0434 | -0.0851 | -0.0341 | -0.0368 | -0.0407 | -0.0462 | -0.0462 | -0.0456 | -0.0506 | -0.0412 | 0.0318 | -0.0443 | -0.0003 | 0.0008 | -0.0065 | -0.0467 | 0.0078
2 | N#Cc1cnc(Nc2cc(NC[C@H]3CNCCO3)c(C(F)(F)F)cn2)cn1 [SRA737] + C=CCn1c(=O)c2cnc(Nc3ccc(N4CCN(C)CC4)cc3)nc2n1-c1cccc(C(C)(C)O)n1 [AZD1775] (first compound max 10 µM, partner max 1 µM) | 0.043 | 0.0422 | 0.0943 | 0.0282 | -0.0475 | 0.0289 | -0.0475 | 0.0199 | 0.0225 | -0.0233 | -0.0239 | 0.0375 | 0.0488 | 0.162 | 0.0124 | 0.0293 | 0.0512 | 0.0812 | -0.0377 | 0.0116
3 | N#Cc1cnc(Nc2cc(NC[C@H]3CNCCO3)c(C(F)(F)F)cn2)cn1 [SRA737] + CCc1c2c(nc3ccc(O)cc13)-c1cc3c(c(=O)n1C2)COC(=O)[C@]3(O)CC [SN-38] (first compound max 10 µM, 7x7, partner max 0.3 µM) | -0.0228 | 0.026 | 0.0294 | -0.0108 | -0.0136 | 0.0626 | 0.0226 | -0.114 | 0.0737 | -0.0648 | -0.0536 | -0.0149 | -0.0427 | -0.0324 | 0.0914 | -0.0174 | 0.13 | -0.0406 | 0.0052 | -0.122
4 | N#Cc1cnc(Nc2cc(NC[C@H]3CNCCO3)c(C(F)(F)F)cn2)cn1 [SRA737] + Nc1ccn([C@@H]2O[C@H](CO)[C@@H](O)C2(F)F)c(=O)n1 [Gemcitabine] (first compound max 10 µM, 7x7, partner max 0.3 µM) | 0.0436 | 0.0092 | 0.0564 | 0.0486 | 0.0485 | 0.0527 | -0.0613 | 0.0372 | 0.14 | -0.0023 | 0.0514 | 0.0721 | 0.138 | 0.0113 | 0.118 | 0.0222 | 0.141 | -0.0377 | -0.022 | -0.125
5 | Cc1nc(-c2cn3c(n2)-c2ccc(-c4cnn(C(C)(C)C(N)=O)c4)cc2OCC3)n(C(C)C)n1 [Taselisib] + O=C(Nc1ccc2[nH]nc(-c3ccncc3)c2c1)[C@@H]1CCN(CC(=O)N2CCN(c3ccc(-c4ncccn4)cc3)CC2)C1 [SCH772984] (first compound max 10 µM, 7x7, partner max 5 µM) | 0.0096 | 0.0219 | 0.029 | -0.0307 | 0.0543 | 0.0107 | 0.0587 | -0.0116 | 0.103 | 0.0848 | 0.0293 | 0.0797 | 0.1 | 0.102 | 0.0798 | 0.0465 | -0.0221 | -0.0332 | -0.0514 | -0.002
6 | CC1(C)CCC(CN2CCN(c3ccc(C(=O)NS(=O)(=O)c4ccc(NCC5CCOCC5)c([N+](=O)[O-])c4)c(Oc4cnc5[nH]ccc5c4)c3)CC2)=C(c2ccc(Cl)cc2)C1 [Venetoclax] + CS(=O)(=O)CCNCc1ccc(-c2ccc3ncnc(Nc4ccc(OCc5cccc(F)c5)c(Cl)c4)c3c2)o1 [Lapatinib] (first compound max 1 µM, 7x7, partner max 10 µM) | -0.0442 | -0.0166 | -0.0257 | -0.0357 | -0.0583 | -0.0477 | -0.054 | -0.0427 | -0.0374 | -0.0535 | -0.0332 | -0.0211 | -0.0112 | 0.0755 | -0.0482 | -0.0166 | 0.0197 | -0.0284 | -0.0453 | -0.0033
